Test results taken from patent US11629171B2, “Beta-hairpin peptidomimetics” (POLYPHOR AG, priority 2017, dated 2023).
≈ marks a conversion by molar mass, not a printed value. Where a SMILES comes first, the peptide text is derived from it. Bridges are numbered along the chain shown (N, C = ends). Roman numbers before positions name the chains, in order. [ ]: non-standard residue; d: D form. Tle = CC(C)(C)[C@H](N)C(=O)O; dOrn = NCCC[C@@H](N)C(=O)O; dDab = NCC[C@@H](N)C(=O)O; hSer = N[C@@H](CCO)C(=O)O; Nle = CCCC[C@H](N)C(=O)O; Orn = NCCC[C@H](N)C(=O)O; Dab = NCC[C@H](N)C(=O)O; Dap = NC[C@H](N)C(=O)O

Experiments:
Type in all cases: cell-based
[1] = system: Escherichia coli ATCC 25922; conditions: ATCC 25922
Procedure, shortened: (§1)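 Standard CLSI microdilution testing: bacterial suspensions standardized against 0.5 McFarland to about 10^6 CFU/mL in MH-II broth meet serially halved peptide concentrations in broth containing 0.002% polysorbate 80; incubation lasts 18-20 h at 35° C before the MIC is scored.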

[2] = system: Pseudomonas aeruginosa ATCC 27853; conditions: ATCC 27853
Procedure, shortened: as §1

[3] = system: Enterobacter cloacae 848840; conditions: 848840
Procedure, shortened: as §1

Escherichia coli 926415 = conditions: 926415
Procedure, shortened: as §1

[4] = system: Klebsiella pneumoniae 968733; conditions: 968733
Procedure, shortened: as §1

[5] = system: Acinetobacter baumannii 872842; conditions: 872842
Procedure, shortened: as §1

[6] = system: Acinetobacter baumannii DSM 30008; conditions: DSM 30008
Procedure, shortened: as §1

[7] = system: Klebsiella pneumoniae SSI #3010; conditions: SSI #3010
Procedure, shortened: as §1

[8] = system: human red blood cells (hRBC); experiment: Hemolysis; conditions: red cells of human, 1 h, 200
Procedure, shortened: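 Washed fresh human RBC (20% v/v) incubated with peptide at 200 μg/mL for 1 h at 37° C with shaking. Supernatant OD540 measured after dilution, blank corrected; percent hemolysis = OD540 peptide / OD540 of 2% Triton X-100 lysis × 100, PBS with 10% water as 0%.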

Compound	MIC [1] [µg/mL]	MIC [2] [µg/mL]	MIC [3] [µg/mL]	MIC (Escherichia coli 926415) [µg/mL]	MIC [4] [µg/mL]	MIC [5] [µg/mL]	MIC [6] [µg/mL]	MIC [7] [µg/mL]	Hemolysis at 200 μg/mL [8] [%]
CC(=O)N[C@H](C(=O)N[C@H]1CCCNC(=O)[C@@H](Cc2ccc(O)cc2)NC(=O)[C@H](C(C)(C)C)NC(=O)[C@H](CO)NC(=O)[C@H](Cc2c[nH]c3ccccc23)NC(=O)[C@H](CCO)NC(=O)[C@@H](CCN)NC(=O)[C@H](CCC(=O)N[C@@H](CCN)C(=O)N[C@H](C(=O)N[C@@H](CN)C(=O)N[C@H]2CCNC(=O)[C@H]([C@@H](C)O)NC(=O)[C@H](CCN)NC(=O)[C@H](CCN)NC(=O)[C@H](CC(C)C)NC(=O)[C@@H](CC(C)C)NC(=O)[C@H](CCN)NC2=O)[C@@H](C)O)NC(=O)[C@H](CO)NC(=O)[C@H](Cc2ccc(O)cc2)NC1=O)C(C)C [Ex. 26] (I: Ac-V[Orn]YSE[dDab][hSer]WS[Tle][dY] / II: [Dab]T[Dap][Dab][Dab][dL]L[Dab][Dab]T; lactam I:2-I:C, II:4-II:C; amide I:5-II:N)	0.0625 (≈ 0.0262 µM)	0.25 (≈ 0.105 µM)	0.25 (≈ 0.105 µM)	0.125 (≈ 0.0525 µM)	0.25 (≈ 0.105 µM)	0.125 (≈ 0.0525 µM)	0.03125 (≈ 0.0131 µM)	0.125 (≈ 0.0525 µM)	1
CC(=O)N[C@H](C(=O)N[C@H]1CCCNC(=O)[C@@H](C(C)C)NC(=O)[C@H](C(C)(C)C)NC(=O)[C@H](CO)NC(=O)[C@H](Cc2c[nH]c3ccccc23)NC(=O)[C@H](CCO)NC(=O)[C@@H](CCN)NC(=O)[C@H](CCC(=O)N[C@@H](CCN)C(=O)N[C@H](C(=O)N[C@@H](CN)C(=O)N[C@H]2CCNC(=O)[C@H]([C@@H](C)O)NC(=O)[C@H](CCN)NC(=O)[C@H](CCN)NC(=O)[C@H](CC(C)C)NC(=O)[C@@H](CC(C)C)NC(=O)[C@H](CCN)NC2=O)[C@@H](C)O)NC(=O)[C@H](CO)NC(=O)[C@H](Cc2ccc(O)cc2)NC1=O)C(C)C [Ex. 27] (I: Ac-V[Orn]YSE[dDab][hSer]WS[Tle][dV] / II: [Dab]T[Dap][Dab][Dab][dL]L[Dab][Dab]T; lactam I:2-I:C, II:4-II:C; amide I:5-II:N)	0.0625 (≈ 0.027 µM)	0.5 (≈ 0.216 µM)	0.25 (≈ 0.108 µM)	1 (≈ 0.431 µM)	1 (≈ 0.431 µM)	0.125 (≈ 0.0539 µM)	0.0625 (≈ 0.027 µM)	0.25 (≈ 0.108 µM)	<1
CC(=O)N[C@H](C(=O)N[C@H]1CCCNC(=O)[C@@H](CCN)NC(=O)[C@H](C(C)(C)C)NC(=O)[C@H](CO)NC(=O)[C@H](Cc2c[nH]c3ccccc23)NC(=O)[C@H](CCO)NC(=O)[C@@H](CCN)NC(=O)[C@H](CCC(=O)N[C@@H](CCN)C(=O)N[C@H](C(=O)N[C@@H](CN)C(=O)N[C@H]2CCNC(=O)[C@H]([C@@H](C)O)NC(=O)[C@H](CCN)NC(=O)[C@H](CCN)NC(=O)[C@H](CC(C)C)NC(=O)[C@@H](CC(C)C)NC(=O)[C@H](CCN)NC2=O)[C@@H](C)O)NC(=O)[C@H](CO)NC(=O)[C@H](Cc2ccc(O)cc2)NC1=O)C(C)C [Ex. 28] (I: Ac-V[Orn]YSE[dDab][hSer]WS[Tle][dDab] / II: [Dab]T[Dap][Dab][Dab][dL]L[Dab][Dab]T; lactam I:2-I:C, II:4-II:C; amide I:5-II:N)	0.125 (≈ 0.0539 µM)	0.25 (≈ 0.108 µM)	0.125 (≈ 0.0539 µM)	8 (≈ 3.45 µM)	8 (≈ 3.45 µM)	4 (≈ 1.72 µM)	0.125 (≈ 0.0539 µM)	0.125 (≈ 0.0539 µM)	<1
CC(=O)N[C@H](C(=O)N[C@H]1CCCNC(=O)[C@@H](CCCN)NC(=O)[C@H](C(C)(C)C)NC(=O)[C@H](CO)NC(=O)[C@H](Cc2c[nH]c3ccccc23)NC(=O)[C@H](CCO)NC(=O)[C@@H](CCN)NC(=O)[C@H](CCC(=O)N[C@@H](CCN)C(=O)N[C@H](C(=O)N[C@@H](CN)C(=O)N[C@H]2CCNC(=O)[C@H]([C@@H](C)O)NC(=O)[C@H](CCN)NC(=O)[C@H](CCN)NC(=O)[C@H](CC(C)C)NC(=O)[C@@H](CC(C)C)NC(=O)[C@H](CCN)NC2=O)[C@@H](C)O)NC(=O)[C@H](CO)NC(=O)[C@H](Cc2ccc(O)cc2)NC1=O)C(C)C [Ex. 29] (I: Ac-V[Orn]YSE[dDab][hSer]WS[Tle][dOrn] / II: [Dab]T[Dap][Dab][Dab][dL]L[Dab][Dab]T; lactam I:2-I:C, II:4-II:C; amide I:5-II:N)	0.0625 (≈ 0.0268 µM)	0.25 (≈ 0.107 µM)	0.0625 (≈ 0.0268 µM)	4 (≈ 1.71 µM)	8 (≈ 3.43 µM)	1 (≈ 0.428 µM)	0.125 (≈ 0.0536 µM)	0.125 (≈ 0.0536 µM)	1
CC(=O)N[C@H](C(=O)N[C@H]1CCCNC(=O)[C@@H]([C@H](C)O)NC(=O)[C@H](C(C)C)NC(=O)[C@H](CO)NC(=O)[C@H](Cc2c[nH]c3ccccc23)NC(=O)[C@H](CCO)NC(=O)[C@@H](CCN)NC(=O)[C@H](CCC(=O)N[C@@H](CCN)C(=O)N[C@H](C(=O)N[C@@H](CN)C(=O)N[C@H]2CCNC(=O)[C@H]([C@@H](C)O)NC(=O)[C@H](CCN)NC(=O)[C@H](CCN)NC(=O)[C@H](CC(C)C)NC(=O)[C@@H](CC(C)C)NC(=O)[C@H](CCN)NC2=O)[C@@H](C)O)NC(=O)[C@H](CCN)NC(=O)[C@H](Cc2ccc(O)cc2)NC1=O)C(C)C [Ex. 31] (I: Ac-V[Orn]Y[Dab]E[dDab][hSer]WSV[dT] / II: [Dab]T[Dap][Dab][Dab][dL]L[Dab][Dab]T; lactam I:2-I:C, II:4-II:C; amide I:5-II:N)	0.03125 (≈ 0.0135 µM)	0.25 (≈ 0.108 µM)	0.125 (≈ 0.0539 µM)	0.5 (≈ 0.216 µM)	0.125 (≈ 0.0539 µM)	0.125 (≈ 0.0539 µM)	0.03125 (≈ 0.0135 µM)	0.0625 (≈ 0.0269 µM)	<1
CC[C@H](C)[C@H](NC(C)=O)C(=O)N[C@H]1CCCNC(=O)[C@@H]([C@H](C)O)NC(=O)[C@H](C(C)(C)C)NC(=O)[C@H](CO)NC(=O)[C@H](Cc2c[nH]c3ccccc23)NC(=O)[C@H](CCO)NC(=O)[C@@H](CCN)NC(=O)[C@H](CCC(=O)N[C@@H](CCN)C(=O)N[C@H](C(=O)N[C@@H](CN)C(=O)N[C@H]2CCNC(=O)[C@H]([C@@H](C)O)NC(=O)[C@H](CCN)NC(=O)[C@H](CCN)NC(=O)[C@H](CC(C)C)NC(=O)[C@@H](CC(C)C)NC(=O)[C@H](CCN)NC2=O)[C@@H](C)O)NC(=O)[C@H](CN)NC(=O)[C@H](Cc2ccc(O)cc2)NC1=O [Ex. 32] (I: Ac-I[Orn]Y[Dap]E[dDab][hSer]WS[Tle][dT] / II: [Dab]T[Dap][Dab][Dab][dL]L[Dab][Dab]T; lactam I:2-I:C, II:4-II:C; amide I:5-II:N)	0.0625 (≈ 0.0268 µM)	0.25 (≈ 0.107 µM)	0.125 (≈ 0.0536 µM)	0.0625 (≈ 0.0268 µM)	0.25 (≈ 0.107 µM)	0.0625 (≈ 0.0268 µM)	0.0625 (≈ 0.0268 µM)	0.125 (≈ 0.0536 µM)	<1
CC(=O)N[C@@H](CC(C)C)C(=O)N[C@H]1CCCNC(=O)[C@@H]([C@H](C)O)NC(=O)[C@H](C(C)(C)C)NC(=O)[C@H](CO)NC(=O)[C@H](Cc2c[nH]c3ccccc23)NC(=O)[C@H](CCO)NC(=O)[C@@H](CCN)NC(=O)[C@H](CCC(=O)N[C@@H](CCN)C(=O)N[C@H](C(=O)N[C@@H](CN)C(=O)N[C@H]2CCNC(=O)[C@H]([C@@H](C)O)NC(=O)[C@H](CCN)NC(=O)[C@H](CCN)NC(=O)[C@H](CC(C)C)NC(=O)[C@@H](CC(C)C)NC(=O)[C@H](CCN)NC2=O)[C@@H](C)O)NC(=O)[C@H](CN)NC(=O)[C@H](Cc2ccc(O)cc2)NC1=O [Ex. 33] (I: Ac-L[Orn]Y[Dap]E[dDab][hSer]WS[Tle][dT] / II: [Dab]T[Dap][Dab][Dab][dL]L[Dab][Dab]T; lactam I:2-I:C, II:4-II:C; amide I:5-II:N)	0.0625 (≈ 0.0268 µM)	0.25 (≈ 0.107 µM)	0.125 (≈ 0.0536 µM)	0.125 (≈ 0.0536 µM)	0.25 (≈ 0.107 µM)	0.0625 (≈ 0.0268 µM)	0.0625 (≈ 0.0268 µM)	0.125 (≈ 0.0536 µM)	<1
CCCC[C@H](NC(C)=O)C(=O)N[C@H]1CCCNC(=O)[C@@H]([C@H](C)O)NC(=O)[C@H](C(C)(C)C)NC(=O)[C@H](CO)NC(=O)[C@H](Cc2c[nH]c3ccccc23)NC(=O)[C@H](CCO)NC(=O)[C@@H](CCN)NC(=O)[C@H](CCC(=O)N[C@@H](CCN)C(=O)N[C@H](C(=O)N[C@@H](CN)C(=O)N[C@H]2CCNC(=O)[C@H]([C@@H](C)O)NC(=O)[C@H](CCN)NC(=O)[C@H](CCN)NC(=O)[C@H](CC(C)C)NC(=O)[C@@H](CC(C)C)NC(=O)[C@H](CCN)NC2=O)[C@@H](C)O)NC(=O)[C@H](CN)NC(=O)[C@H](Cc2ccc(O)cc2)NC1=O [Ex. 34] (I: Ac-[Nle][Orn]Y[Dap]E[dDab][hSer]WS[Tle][dT] / II: [Dab]T[Dap][Dab][Dab][dL]L[Dab][Dab]T; lactam I:2-I:C, II:4-II:C; amide I:5-II:N)	0.0625 (≈ 0.0268 µM)	0.25 (≈ 0.107 µM)	0.125 (≈ 0.0536 µM)	0.0625 (≈ 0.0268 µM)	0.125 (≈ 0.0536 µM)	0.0625 (≈ 0.0268 µM)	0.03125 (≈ 0.0134 µM)	0.125 (≈ 0.0536 µM)	<1
